Data: patent EP0234178A1, “New 8-substituted derivatives of an anhydrooctonic acid, methods for their preparation, pharmaceutical preparations containing these and intermediates” (Astra Läkemedel Aktiebolag, priority 1985, dated 1987)

Tests used:
Gram-negative bacteria = assay: Test I Bactericidal activity (viable count after exposure to drug); assay type: cell-based; conditions: final concentration of ImM, 15 min exposure, number of viable bacteria
Description: A range of Gram-negative bacteria were grown at 37°C in aerobic shake culture in nutrient broth for 16 h. O.I ml of these cultures were each inoculated into 5 ml of fresh broth and the cultures incubated further, until the bacteria reached mid-logarithmic phase, when the culture was harvested by centrifugation and resuspended in Basal Medium 2 (J Bacteriol 117 (1974) 3O2-311) to an OD 1cm 620 mm = 0.2 (equivalent to 10^8 bacteria/ml). Test compound was added to the bacterial suspension to give a final concentration of ImM. After 15 min exposure to drug the number of viable bacteria was determined by serial dilution in sterile phosphate buffered saline (PBS), plating out onto McConkey agar plates and incubating for 16 h at 37°C.

[1] = system: S. typhimurium AG701 i50 (KdsA^ts); assay: Test III Inhibition of incorporation of 3H-arabinose-5-phosphate into LPS; assay type: cell-based, Salmonella typhimurium; conditions: S. typhimurium AG701 i50, 30°C, samples after 10 min
Description: Arabinose-5-phosphate is a precursor of KDO in enteric bacteria. KdsA mutants of Salmonella typhimurium rapidly take up exogenous arabinose-5-phosphate and convert it to KDO which then appears exclusively in LPS (J. Biol. Chem. 255 (1980) 4257).
S. typhimurium AG701 i50 (KdsA^ts) was grown overnight at 30°C in minimal Medium (Eur. J. Biochem. 107 (1980) 145-153) supplemented with 1% glycerol and 0.01 mM D-fucose. The next day 0.1 ml of overnight culture was added to fresh medium and the culture grown at 30°C until mid logarithmic phase - (OD [formula] mm = 0.2) when 50 µl of "H-arabinose-5-phosphate (Amersham; specific activity 72 µCi/ml)-was added. After 10 min 0.45 ml samples were taken, the bacteria colleced by filtration (Whatman GF/F glass fibre filter) and washed with 6 ^x Iml PBS followed by 100 ml boiling water. This procedure ensures that all radioactive counts recorded represent arabinose-5-phosphate incorporated into LPS as KDO (J. Biol. Chem. 255 (1980) 4257).

C[C@H](N)C(=O)N[C@@H](C)C(=O)NC[C@@H](O)[C@H]1O[C@H](C(=O)O)C[C@@H](O)[C@H]1O [Compound 6, N-(L-alanyl-L-alanyl)-8-amino-2,6-anhydro-3,8-dideoxy-D-glycero-D-talo-octonic acid]
inhibitory action against the bacteria (Gram-negative bacteria): inhibitory action
incorporation of arabinose-5-phosphate into LPS / denovo LPS biosynthesis [1]: markedly inhibits
